Laboratory results published in patent publication US12673924B2, “Valiolamine derivatives as glucosidase inhibitors” (Emergent Product Development Gaithersburg Inc., priority 2021, dated 2026).

Legend:
recombinant human GBA = target: T1, recombinant human GBA (Homo sapiens, UniProt P04062); test: Beta-glucocerebrosidase (GBA) inhibition assay; assay type: biochemical; conditions: 4-methylumbelliferyl-beta-D-pyranoside substrate, 4-PL curve fit
T1 construct: purchased
T1 sequence (P04062 40-536): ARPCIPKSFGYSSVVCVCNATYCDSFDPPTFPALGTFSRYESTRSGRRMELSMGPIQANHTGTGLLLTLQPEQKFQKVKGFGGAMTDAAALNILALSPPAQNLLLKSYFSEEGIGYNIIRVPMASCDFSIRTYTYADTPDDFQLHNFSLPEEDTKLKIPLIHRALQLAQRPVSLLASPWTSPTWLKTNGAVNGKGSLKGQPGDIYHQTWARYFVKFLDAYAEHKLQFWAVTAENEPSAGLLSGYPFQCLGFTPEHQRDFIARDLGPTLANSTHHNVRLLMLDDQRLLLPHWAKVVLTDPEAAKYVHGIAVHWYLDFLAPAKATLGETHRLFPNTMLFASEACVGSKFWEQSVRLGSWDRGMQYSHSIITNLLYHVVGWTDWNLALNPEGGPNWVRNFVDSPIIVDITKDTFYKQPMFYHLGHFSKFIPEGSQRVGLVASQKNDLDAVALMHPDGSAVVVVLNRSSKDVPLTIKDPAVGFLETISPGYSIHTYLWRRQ
Experimental: Beta-glucocerebrosidase (GBA, also referred to glucosylceramidase): To analyze inhibitory effects of a test compound, commercially available recombinant human GBA was incubated with multiple dilutions of test compound for 60 minutes at 37° C. 4-methylumbelliferyl-beta-D-pyranoside was then introduced to the mixture as substrate. Following incubation for 60 minutes at 37° C., 1,4-methyllumbelliferone was generated, and the reaction was stopped with the stop solution (0.5 M glycine; 0.3 M NaOH, pH 10). 1,4-methyllumbelliferone was detected by fluorescence (excitation at 365 nm, emission at 440 nm). Relative fluorescence is compared to untreated enzymatic activity and test compound concentration is then plotted as a function of percent inhibition. The IC50 was determined using a 4-PL curve fit as the measure of relative inhibitory activity of each test compound (see Table 4).

rat maltase = test: Intestinal alpha-glucosidase assay, maltose substrate; assay type: biochemical; conditions: alpha-glucosidase from intestinal rat powder
Experimental: Intestinal alpha-glucosidases (rat maltase and sucrase): Intestinal alpha-glucosidases act upon 1,4-alpha-glucoside bonds, breaking down disaccharides to glucose. To perform this assay, partially purified alpha-glucosidase from intestinal rat powder was incubated for 60 minutes at 37° C. with multiple dilutions of test compounds. Maltose or Sucrose respectively was then introduced as substrate to the mixture and incubated for 30 minutes at 37° C. The reaction was stopped by a 5-minute incubation at 90° C. and the resultant glucose production is detected using Sigma's Glucose GO Kit. Percent inhibition was then plotted as a function of concentration for each test compound. The IC50 was determined using a 4-PL curve fit and serves as the measure of relative inhibition of each test compound (see Table 4). Table 4 summarizes the results of IC50s for each molecule against each tested glucosidase enzyme.

SMILES | IC50 (recombinant human GBA) [µM] | IC50 (rat maltase) [µM]
N[C@H]1C[C@](O)(CO)[C@@H](O)[C@H](O)[C@H]1O [Valiolamine] | > 1000 | 1.3
O=C(O)CCCCN[C@H]1C[C@](O)(CO)[C@@H](O)[C@H](O)[C@H]1O [Compound 11, 5-(((1S,2S,3R,4S,5S)-2,3,4,5-tetrahydroxy-5-(hydroxymethyl)cyclohexyl)amino)pentanoic acid] | > 1000 | 7.58
O=[N+]([O-])c1cc(-n2cnnn2)ccc1NCCCCCCN[C@H]1C[C@](O)(CO)[C@@H](O)[C@H](O)[C@H]1O [Compound 4, (1S,2S,3R,4S,5S)-1-(hydroxymethyl)-5-((6-((2-nitro-4-(1H-tetrazol-1-yl)phenyl)amino)hexyl)amino)cyclohexane-1,2,3,4-tetraol] | > 1000 | 0.512
[N-]=[N+]=Nc1ccc(NCCCCCN[C@H]2C[C@](O)(CO)[C@@H](O)[C@H](O)[C@H]2O)c([N+](=O)[O-])c1 [Compound 9, (1S,2S,3R,4S,5S)-5-((5-((4-azido-2-nitrophenyl)amino)pentyl)amino)-1-(hydroxymethyl)cyclohexane-1,2,3,4-tetraol] | 103 | 0.00486
O=[N+]([O-])c1cc(-n2nccn2)ccc1NCCCCCCN[C@H]1C[C@](O)(CO)[C@@H](O)[C@H](O)[C@H]1O [Compound 5, (1S,2S,3R,4S,5S)-1-(hydroxymethyl)-5-((6-((2-nitro-4-(2H-1,2,3-triazol-2-yl)phenyl)amino)hexyl)amino)cyclohexane-1,2,3,4-tetraol] | 143 | < 0.0333
[N-]=[N+]=Nc1ccc(NCCOCCN[C@H]2C[C@](O)(CO)[C@@H](O)[C@H](O)[C@H]2O)c([N+](=O)[O-])c1 [Compound 10, (1S,2S,3R,4S,5S)-5-((2-(2-((4-azido-2-nitrophenyl)amino)ethoxy)ethyl)amino)-1-(hydroxymethyl)cyclohexane-1,2,3,4-tetraol] | > 1000 | 0.0261
O=[N+]([O-])c1cc(-n2ccnn2)ccc1NCCCCCCN[C@H]1C[C@](O)(CO)[C@@H](O)[C@H](O)[C@H]1O [Compound 6, (1S,2S,3R,4S,5S)-1-(hydroxymethyl)-5-((6-((2-nitro-4-(1H-1,2,3-triazol-1-yl)phenyl)amino)hexyl)amino)cyclohexane-1,2,3,4-tetraol] | 776 | < 0.0333
O=[N+]([O-])c1cc(-c2ncccn2)ccc1NCCCCCCN[C@H]1C[C@](O)(CO)[C@@H](O)[C@H](O)[C@H]1O [Compound 7, (1S,2S,3R,4S,5S)-1-(hydroxymethyl)-5-((6-((2-nitro-4-(pyrimidin-2-yl)phenyl)amino)hexyl)amino)cyclohexane-1,2,3,4-tetraol] | > 1000 | 0.00814
[N-]=[N+]=Nc1ccc(NCCCCN[C@H]2C[C@](O)(CO)[C@@H](O)[C@H](O)[C@H]2O)c([N+](=O)[O-])c1 [Compound 8, (1S,2S,3R,4S,5S)-5-((4-((4-azido-2-nitrophenyl)amino)butyl)amino)-1-(hydroxymethyl)cyclohexane-1,2,3,4-tetraol] | > 1000 | 0.0053
COCCCCCCCCCN[C@H]1C[C@](O)(CO)[C@@H](O)[C@H](O)[C@H]1O [Compound 3, (1S,2S,3R,4S,5S)-1-(hydroxymethyl)-5-((9-methoxynonyl)amino)cyclohexane-1,2,3,4-tetraol] | > 1000 | 0.102
[N-]=[N+]=Nc1ccc(NCCCCCCN[C@H]2C[C@](O)(CO)[C@@H](O)[C@H](O)[C@H]2O)c([N+](=O)[O-])c1 [Compound 2, (1S,2S,3R,4S,5S)-5-((6-((4-azido-2-nitrophenyl)amino)hexyl)amino)-1-(hydroxymethyl)cyclohexane-1,2,3,4-tetraol] | 139 | 0.00165
